# Source: paper PMC8162438, “Cancer cell-selective modulation of mitochondrial respiration and metabolism by potent organogold(III) dithiocarbamates” (Chemical Science, 2020)
# Test system: MDA-MB-231
# Assay: Whole-cell uptake after pre-treatment with uptake inhibitors (GF-AAS)
# Format: cell-based
# Settings: MDA-MB-231, 5 μM, 24 h; NaN3, chlorpromazine, Me-β-CD, genistein, wortmannin
# Method: To understand cell uptake mechanisms, detailed uptake studies using GF-AAS were conducted whereby MDA-MB-231 cells were incubated with gold compound, 2a after cellular pretreatment with one of a number of known inhibitors of cellular uptake. Sodium azide (NaN3), which is known to inhibit mitochondrial oxidative phosphorylation, was used as a general inhibitor of energy (ATP)-dependent (active) uptake; chlorpromazine (CL) was utilized as an inhibitor of clathrin-dependent endocytosis (CDE); β-cyclodextrin (Me-β-CD) and genestein (Gen) were used as inhibitors of clathrin-independent endocytosis (CIE); and, wortmannin (Wort) was employed as a known inhibitor of micropinocytosis. […] Being an […] pathway illustrates that these compounds are not dependent on oxidative phosphorylation for uptake, despite; their ability to modulate OXPHOS. […]
# and treated at a final concentration of 5 µ M and treated for 24 hours as well. The cells were then collected by trypsinization and centrifuged at 2000 rpm for 5 minutes to form a pellet. […]
# text (Figure 5C). Samples 37 °C, NaN 3, methyl-β-cyclodextrin, and chlorpromazine hydrochloride were calculated using calibration curve Fig. S134 and samples wortmannin, genistein, and +4 °C were calculated using calibration curve Fig. S135. […]
compound,measurement,value
C[N+](C)=C1[S][Au-2]2([S]1)[c]1ccccc1Cc1cccc[n+]12.F[P-](F)(F)(F)(F)F (stereo not shown) [2a],Uptake after pre-treatment with uptake inhibitors,significantly decreased with all inhibitors with the exception of NaN3
